Converted amounts (≈) assume the structure as drawn.
Legend:
Test in all cases: In vitro determination of minimum inhibitory concentration (MIC), serial dilution
Type in all cases: cell-based
Trichophyton rubrum = details: 336 h, pH 6, Trichophyton rubrum, pH 6.0, 22° C., 14 days
Experimental: (§1) The antimycotic activities of the compounds were measured by in vitro determination of the minimum inhibitory concentration (MIC) for yeasts, molds and dermatophytes.
(§2) 6 dermatophytes, 2 yeasts and 4 molds were used for testing with fungi, as follows:
(§3) The minimum inhibitory concentration (MIC) was determined in serial dilution tests in test tubes. The volume of the liquid nutrient medium in each test tube was 4.5 ml.
(§4) The substances were dissolved in DMSO and diluted with sterile distilled water to 10 concentrations (100, 50, 25, 12.5, 6.25, 3.12, 1.56, 0.78, 0.39 and 0.19 μg/ml). 0.5 ml of each of these dilution steps was added to liquid nutrient medium. Thus, a constant concentration of solvent in all the nutrient media was ensured, irrespective of the active compound concentration.
(§5) A comparison solution which contained only the solvent in appropriate concentration was included when carrying out each of the tests.
(§6) The individual strains were maintained on Sabouraud/beerwort agar slants and, before they were used in a test, they underwent a passage on a modified Sabouraud liquid nutrient medium. The strains were then harvested, washed and converted into a suspension of McFaerland 3 in the case of yeasts and molds and of McFaerland 4-5 in the case of dermatophytes.
(§7) The amount of material inoculated (inoculum) was 100 μl/test tube (inoculated densities: yeasts about 10^3 /ml, molds about 10^4 /ml, dermatophytes about 10^4 /ml). The pH of the liquid nutrient medium was 6.0. After inoculation had taken place the fungi were incubated at 22° C. for 14 days.
(§8) The MIC was then determined. The concentration step at which growth was no longer visible on macroscopic inspection was used for the determination of the MIC. The comparison substance used was 1-(2-(2,4-dichlorophenyl)-2-(2,4-dichlorophenylmethoxy)ethyl)-1H-imidazole(compound A).

[1] = tested on: Trichophyton mentagrophytes; details: 336 h, pH 6, Trichophyton mentagrophytes, pH 6.0, 22° C., 14 days
Experimental: as §1, §2, §3, §4, §5, §6, §7, §8

Aspergillus fumigatus = details: 20160 min, pH 6
Experimental: as §1, §2, §3, §4, §5, §6, §7, §8

Absidia ramosa = details: Lichtheimia ramosa, 336 h, pH 6, Absidia ramosa; pH 6.0, 22° C., 14 days
Experimental: as §1, §2, §3, §4, §5, §6, §7, §8

Candida tropicalis = details: 336 h, pH 6, Candida tropicalis, pH 6.0, 22° C., 14 days, read-out: MIC C.trop
Experimental: as §1, §2, §3, §4, §5, §6, §7, §8

Epidermophyton floccosum = details: 336 h, pH 6, Epidermophyton floccosum, pH 6.0, 22° C., 14 days
Experimental: as §1, §2, §3, §4, §5, §6, §7, §8

Microsporum gypseum = details: Nannizzia gypsea, 336 h, pH 6, Microsporum gypseum; pH 6.0, 22° C., 14 days; read-out: MIC Mi.gyp
Experimental: as §1, §2, §3, §4, §5, §6, §7, §8

Mucor mucedo minus = details: Mucor mucedo, 336 h, pH 6, Mucor mucedo minus; pH 6.0, 22° C., 14 days
Experimental: as §1, §2, §3, §4, §5, §6, §7, §8

Microsporum canis = details: 336 h, pH 6, Microsporum canis, pH 6.0, 22° C., 14 days
Experimental: as §1, §2, §3, §4, §5, §6, §7, §8

Trichophyton verrucosum = details: 336 h, pH 6, Trichophyton verrucosum, pH 6.0, 22° C., 14 days
Experimental: as §1, §2, §3, §4, §5, §6, §7, §8

Candida albicans = details: 336 h, pH 6, Candida albicans, pH 6.0, 22° C., 14 days, read-out: MIC C.alb
Experimental: as §1, §2, §3, §4, §5, §6, §7, §8

Mucor mucedo plus = details: Mucor mucedo, 336 h, pH 6, Mucor mucedo plus; pH 6.0, 22° C., 14 days
Experimental: as §1, §2, §3, §4, §5, §6, §7, §8

Compound	MIC (Trichophyton rubrum) [µg/mL]	MIC [1] [µg/mL]	MIC Asp.fu. (Aspergillus fumigatus)	MIC (Absidia ramosa) [µg/mL]	MIC (Candida tropicalis) [µg/mL]	MIC (Epidermophyton floccosum) [µg/mL]	MIC (Microsporum gypseum) [µg/mL]	MIC (Mucor mucedo minus) [µg/mL]	MIC (Microsporum canis) [µg/mL]	MIC (Trichophyton verrucosum) [µg/mL]	MIC (Candida albicans) [µg/mL]	MIC (Mucor mucedo plus) [µg/mL]
Cc1ccc(OCCCNC(Cn2cncn2)c2ccc(Cl)cc2Cl)cc1 (stereo not drawn) [Compound 52]	3.12 (≈ 7.7 µM)	6.25 (≈ 15.4 µM)	6,25 μg/ml	100 (≈ 247 µM)	6.25 (≈ 15.4 µM)	3.12 (≈ 7.7 µM)	3.12 (≈ 7.7 µM)	12.5 (≈ 30.8 µM)	3.12 (≈ 7.7 µM)	3.12 (≈ 7.7 µM)	12.5 (≈ 30.8 µM)	3.12
Fc1ccc(OCCCNC(Cn2ccnc2)c2ccc(Cl)cc2Cl)cc1 (stereo not drawn) [Compound 56]	1.56 (≈ 3.82 µM)	3.12 (≈ 7.64 µM)	0,78 μg/ml	6.25 (≈ 15.3 µM)	3.12 (≈ 7.64 µM)	6.25 (≈ 15.3 µM)	3.12 (≈ 7.64 µM)	0.78 (≈ 1.91 µM)	12.5 (≈ 30.6 µM)	1.56 (≈ 3.82 µM)	12.5 (≈ 30.6 µM)	1.56
CN(CCCOc1ccc(Cl)cc1)C(Cn1ccnc1)c1ccc(Cl)cc1Cl (stereo not drawn) [Compound 60]	0.78 (≈ 1.78 µM)	6.25 (≈ 14.2 µM)	6,25 μg/ml	6.25 (≈ 14.2 µM)	1.56 (≈ 3.56 µM)	3.12 (≈ 7.11 µM)	3.12 (≈ 7.11 µM)	1.56 (≈ 3.56 µM)	1.56 (≈ 3.56 µM)	1.56 (≈ 3.56 µM)	3.12 (≈ 7.11 µM)	3.12
CN(CCCOc1ccc(Br)cc1)C(Cn1cncn1)c1ccc(Cl)cc1Cl (stereo not drawn) [Compound 62]	3.12 (≈ 6.44 µM)	1.56 (≈ 3.22 µM)	1,56 μg/ml	50 (≈ 103 µM)	3.12 (≈ 6.44 µM)	0.78 (≈ 1.61 µM)	3.12 (≈ 6.44 µM)	3.12 (≈ 6.44 µM)	3.12 (≈ 6.44 µM)	1.56 (≈ 3.22 µM)	6.25 (≈ 12.9 µM)	3.12
CN(CCCOc1ccc(I)cc1)C(Cn1ccnc1)c1ccc(Cl)cc1Cl (stereo not drawn) [Compound 65]	0.78 (≈ 1.47 µM)	6.25 (≈ 11.8 µM)	3,12 μg/ml	3.12 (≈ 5.88 µM)	1.56 (≈ 2.94 µM)	3.12 (≈ 5.88 µM)	3.12 (≈ 5.88 µM)	6.25 (≈ 11.8 µM)	1.56 (≈ 2.94 µM)	1.56 (≈ 2.94 µM)	3.12 (≈ 5.88 µM)	6.25
Cc1cc(Cl)ccc1OCCCNC(Cn1cncn1)c1ccc(Cl)cc1Cl (stereo not drawn) [Compound 68]	50 (≈ 114 µM)	25 (≈ 56.8 µM)	100 µg/mL (≈ 227 µM)	100 (≈ 227 µM)	25 (≈ 56.8 µM)	25 (≈ 56.8 µM)	25 (≈ 56.8 µM)	12.5 (≈ 28.4 µM)	12.5 (≈ 28.4 µM)	6.25 (≈ 14.2 µM)	50 (≈ 114 µM)	6.25
Clc1ccc(C(Cn2cncn2)NCCCOc2c(Cl)cccc2Cl)c(Cl)c1 (stereo not drawn) [Compound 72]	3.12 (≈ 6.78 µM)	25 (≈ 54.3 µM)	3,12 μg/ml	100 (≈ 217 µM)	3.12 (≈ 6.78 µM)	6.25 (≈ 13.6 µM)	6.25 (≈ 13.6 µM)	6.25 (≈ 13.6 µM)	25 (≈ 54.3 µM)	1.56 (≈ 3.39 µM)	3.12 (≈ 6.78 µM)	6.25
Clc1ccc(C(Cn2ccnc2)NCCCSc2ccccc2)c(Cl)c1 (stereo not drawn) [Compound 90]	1.56 (≈ 3.84 µM)	25 (≈ 61.5 µM)	3,12 μg/ml	12.5 (≈ 30.8 µM)	3.12 (≈ 7.68 µM)	3.12 (≈ 7.68 µM)	3.12 (≈ 7.68 µM)	3.12 (≈ 7.68 µM)	3.12 (≈ 7.68 µM)	1.56 (≈ 3.84 µM)	6.25 (≈ 15.4 µM)	6.25
Cc1ccc(SCCCNC(Cn2ccnc2)c2ccc(Cl)cc2Cl)cc1 (stereo not drawn) [Compound 92]	0.78 (≈ 1.86 µM)	0.78 (≈ 1.86 µM)	0,78 μg/ml	6.25 (≈ 14.9 µM)	12.5 (≈ 29.7 µM)	0.78 (≈ 1.86 µM)	0.78 (≈ 1.86 µM)	3.12 (≈ 7.42 µM)	3.12 (≈ 7.42 µM)	0.78 (≈ 1.86 µM)	12.5 (≈ 29.7 µM)	0.78
Clc1ccc(SCCCNC(Cn2cncn2)c2ccc(Cl)cc2Cl)cc1 (stereo not drawn) [Compound 95]	1.56 (≈ 3.53 µM)	3.12 (≈ 7.06 µM)	12,5 μg/ml	100 (≈ 226 µM)	12.5 (≈ 28.3 µM)	0.78 (≈ 1.77 µM)	3.12 (≈ 7.06 µM)	3.12 (≈ 7.06 µM)	6.25 (≈ 14.1 µM)	3.12 (≈ 7.06 µM)	12.5 (≈ 28.3 µM)	3.12
Clc1ccc(SCCCNC(Cn2cncn2)c2ccc(Cl)cc2)cc1 (stereo not drawn) [Compound 99]	3.12 (≈ 7.66 µM)	6.25 (≈ 15.3 µM)	100 µg/mL (≈ 245 µM)	100 (≈ 245 µM)	12.5 (≈ 30.7 µM)	6.25 (≈ 15.3 µM)	3.12 (≈ 7.66 µM)	6.25 (≈ 15.3 µM)	12.5 (≈ 30.7 µM)	3.12 (≈ 7.66 µM)	6.25 (≈ 15.3 µM)	12.5
Clc1ccc(SCCCNC(Cn2ccnc2)c2ccc(Br)cc2)cc1 (stereo not drawn) [Compound 100]	3.12 (≈ 6.92 µM)	6.25 (≈ 13.9 µM)	6,25 μg/ml	6.25 (≈ 13.9 µM)	12.5 (≈ 27.7 µM)	6.25 (≈ 13.9 µM)	6.25 (≈ 13.9 µM)	25 (≈ 55.5 µM)	6.25 (≈ 13.9 µM)	6.25 (≈ 13.9 µM)	3.12 (≈ 6.92 µM)	12.5
Clc1ccc(C(Cn2cncn2)NCCCSc2ccc(Br)cc2)c(Cl)c1 (stereo not drawn) [Compound 104]	6.25 (≈ 12.9 µM)	25 (≈ 51.4 µM)	100 µg/mL (≈ 206 µM)	100 (≈ 206 µM)	12.5 (≈ 25.7 µM)	12.5 (≈ 25.7 µM)	6.25 (≈ 12.9 µM)	50 (≈ 103 µM)	100 (≈ 206 µM)	12.5 (≈ 25.7 µM)	25 (≈ 51.4 µM)	12.5

Source: patent US4812465A, “Triazole derivatives for use as antimycotic agents” (CL Pharma Aktiengesellschaft, priority 1986, dated 1989)
